Assay results as given in patent US12005056B2, “Centrally-active ghrelin agonist and medical uses thereof” (Helsinn Healthcare SA, priority 2018, dated 2024).

Columns and labels:
[1] = test system: oxaliplatin-treated Balb/C mice; conditions: oxaliplatin 6 mg/kg i.p. twice weekly for 4 weeks
[2] = Comparative pharmacokinetics versus reference compounds, rat
[3] = Comparative pharmacokinetics versus reference compounds, dog
[4] = Rat, 2 hours after intravenous administration
[5] = Rat, IV, dosing level 3 mg/kg (level not given for Reference 2)
[6] = Rat, PO, dosing level 3 mg/kg (level not given for Reference 2)
[7] = Dog, IV, dosing level 1 mg/kg (level not given for Reference 2)
[8] = Dog, PO, dosing level 2 mg/kg (level not given for Reference 2)

**Q.** For `O=C1[O][Pt]2([NH][C@@H]3CCCC[C@H]3[NH]2)[O]C1=O` [Oxaliplatin, reference compound], which “decrease in caudal NCV vs. vehicle-treated mice” value [1] is on record?
**A.** Its value is 8±1.1%.

**Q.** And the “reduction in IENFD in the footpads vs. vehicle-treated mice” value [1]?
**A.** Its value is −31.7±3.5%.

**Q.** What about the “decrease in digital potential amplitude” value ([1]; not statistically significant) of the same compound?
**A.** The value was 13.5+/−6.4%.

**Q.** Which results are given for `COc1ccc([C@H](C)NC(=O)N(O)C2CCN(C)CC2)c2ccccc12` [Reference 2]?
**A.** 2 hr brain concentration [2, 4]: 79.6 ng · g; 2 hr plasma concentration [2, 4]: 790.3 ng/mL; AUC (0-t) [2, 5]: 8412.7 ng·h/mL; CLz/F [2, 5]: 0.3 L/h/kg; AUC (0-t) [2, 6]: 6139.8 ng·h/mL; CLz/F [2, 6]: 0.4 L/h/kg; F [2, 6]: 73.0%; Kp at 2 h ([2]; rat, brain/plasma, iv): 0.1; Cmax ([2]; rat, plasma, iv, 3 mg/kg): 1220 ng/mL; half-life ([2]; rat, plasma, iv, 3 mg/kg): 348 min; Cmax ([2]; rat, plasma, po, 3 mg/kg): 481 ng/mL; Vd/F ([2]; rat, plasma, po, 3 mg/kg): 3.3 L/kg; half-life ([2]; rat, plasma, po, 3 mg/kg): 366 min; tmax ([2]; rat, plasma, po, 3 mg/kg): 6 h; AUC (0-t) [3, 7]: 14810.5 ng·h/mL; CLz/F [3, 7]: 0.04 L/h/kg; AUC (0-t) [3, 8]: 28288.2 ng·h/mL; CLz/F [3, 8]: 0.06 L/h/kg; F [3, 8]: 95.5%; Cmax ([3]; dog, in vivo, iv, 1 mg/kg): 1520 ng/mL; half-life ([3]; dog, in vivo, iv, 1 mg/kg): 1330 min; Cmax ([3]; dog, in vivo, po, 2 mg/kg): 2040 ng/mL; Vd/F ([3]; dog, in vivo, po, 2 mg/kg): 0.9 L/kg; half-life ([3]; dog, in vivo, po, 2 mg/kg): 708 min; tmax ([3]; dog, in vivo, po, 2 mg/kg): 40.2 min

**Q.** For `COc1ccc(C(C)NC(=O)N(C)C2CCN(C)CC2(C)C)c(Cl)c1Cl` (centres unmarked) [free base, 3-(1-(2,3-dichloro-4-methoxyphenyl)ethyl)-1-methyl-1-(1,3,3-trimethylpiperidin-4-yl)urea], which solubility (Water solubility testing) is on record?
**A.** Its solubility is less than 2000 µg/mL.
